{"source": "patent US10294202B2", "about": "“Pyrrolidinones as herbicides” (FMC Corporation, priority 2013, dated 2019)", "key": {"[1]": {"system": "morningglory", "test": "Test C pre-/postemergence herbicide test", "format": "in vivo, Ipomoea coccinea", "settings": "Preemergence", "excerpt": "(§1) Seeds of plant species selected from blackgrass (Alopecurus myosuroides), ryegrass, Italian (Italian ryegrass, Lolium multiflorum), wheat (winter wheat, Triticum aestivum), galium (catchweed bedstraw, Galium aparine), corn (Zea mays), crabgrass, large (large crabgrass, Digitaria sanguinalis), foxtail, giant (giant foxtail, Setaria faberii), johnsongrass (Sorghum halepense), lambsquarters (Chenopodium album), morningglory (Ipomoea coccinea), nutsedge, yellow (yellow nutsedge, Cyperus esculentus), pigweed (Amaranthus retroflexus), ragweed (common ragweed, Ambrosia elatior), soybean (Glycine max), barnyardgrass (Echinochloa crus-galli), oilseed rape (Brassica napus), waterhemp (common waterhemp, Amaranthus rudis), kochia (Kochia scoparia), oat, wild (wild oat, Avena fatua), surinam grass (Brachiaria decumbens), foxtail, green (green foxtail, Setaria viridis), goosegrass (Eleusine indica), bromegrass, downy (downy bromegrass, Bromus tectorum), nightshade (eastern black nightshade, Solanum ptycanthum), cocklebur (common cocklebur, Xanthium strumarium), cupgrass, woolly (woolly cupgrass, Eriochloa villosa), bermudagrass (Cynodon dactylon), sunflower, (common oilseed sunflower, Helianthus annuus), Russian thistle (Salsola kali) and velvetleaf (Abutilon theophrasti) were planted into a blend of loam soil and sand and treated preemergence with test chemicals formulated in a non-phytotoxic solvent mixture which included a surfactant. At the same time, plants selected from these crop and weed species and also barley (winter barley, Hordeum vulgare), […]), chickweed (common chickweed, Stellaria media), deadnettle (henbit deadnettle, Lamium amplexicaule), and canarygrass (littleseed canarygrass, Phalaris minor) were planted in pots containing Redi-Earth® planting medium (Scotts Company, 14111 Scottslawn Road, Marysville, Ohio 43041) comprising spaghnum peat moss, vermiculite, wetting agent and starter nutrients and treated with postemergence applications of test chemicals formulated in the same manner. Plants ranged in height from 2 to 18 cm (1- to 4-leaf stage) for postemergence treatments. Treated plants and controls were maintained in a greenhouse for 13 to 15 days, after which time all species were compared to controls and visually evaluated. Plant response ratings, summarized in Table C, are based on a scale of 0 to 100 where 0 is no effect and 100 is complete control. A dash (-) response means no test result."}, "[2]": {"system": "barnyardgrass", "test": "Test C pre-/postemergence herbicide test", "format": "in vivo, Echinochloa crus-galli", "settings": "Preemergence", "method_in_brief": "(§2)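 Two application timings ran in parallel with identically formulated test chemicals (non-phytotoxic solvent, surfactant included): spray on seeded loam–sand soil, and spray on emerged plants 2 to 18 cm high. Evaluation at 13 to 15 days compared each species with controls, rated from 0 up to 100.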"}, "[3]": {"system": "corn", "test": "Test A pre-/postemergence herbicide test", "format": "in vivo, Zea mays", "settings": "for Plant response rating, Corn: 0 to 100 scale", "method_in_brief": "(§3)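 Directed soil spray to seeded pots (preemergence) or spray onto one- to two-leaf seedlings 2–10 cm tall (postemergence); loam/sand substrate throughout. Evaluated visually after about 10 days against untreated plants, 0 = no effect, 100 = complete control.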"}, "[4]": {"system": "giant foxtail", "test": "Test A pre-/postemergence herbicide test", "format": "in vivo, Setaria faberii", "settings": "for Plant response rating, Foxtail, Giant: 0 to 100 scale", "method_in_brief": "as §3"}, "[5]": {"system": "ragweed", "test": "Test C pre-/postemergence herbicide test", "format": "in vivo, Ambrosia elatior", "settings": "Preemergence", "method_in_brief": "as §2"}, "[6]": {"system": "barnyardgrass", "test": "Test A pre-/postemergence herbicide test", "format": "in vivo, Echinochloa crus-galli", "settings": "for Plant response rating, Barnyardgrass: 0 to 100 scale", "method_in_brief": "as §3"}, "[7]": {"system": "crabgrass, large", "test": "Test C pre-/postemergence herbicide test", "format": "in vivo, Digitaria sanguinalis", "settings": "Preemergence", "excerpt": "as §1"}, "[8]": {"system": "soybean", "test": "Test C pre-/postemergence herbicide test", "format": "in vivo, Glycine max", "settings": "Preemergence", "method_in_brief": "as §2"}, "[9]": {"system": "blackgrass", "test": "Test C pre-/postemergence herbicide test", "format": "in vivo, Alopecurus myosuroides", "settings": "Preemergence", "excerpt": "as §1"}, "[10]": {"settings": "31 g ai/ha, scale 0 to 100, 0 is no effect and 100 is complete control"}, "[11]": {"settings": "62 g ai/ha, scale 0 to 100 (0 no effect, 100 complete control)"}, "[12]": {"settings": "125 g ai/ha, scale 0 to 100 (0 no effect, 100 complete control)"}, "[13]": {"settings": "125 g ai/ha, visual rating, 0 no effect, 100 complete control, approximately 10 days, preemergence"}, "[14]": {"settings": "Postemergence, 125 g ai/ha, 0 is no effect, 100 is complete control"}, "[15]": {"settings": "preemergence, 500 g ai/ha, 0 is no effect and 100 is complete control"}}, "data": [{"smiles": "O=C1NCC(c2cccc(C(F)(F)F)c2)C1C(=O)Nc1ccccc1Cl", "note": "(racemic) [Compound 189]", "values": [{"measurement": "Morningglory plant response rating", "setting": "[1]; [10]", "result": 0}, {"measurement": "Morningglory plant response rating", "setting": "[1]; [11]", "result": 0}, {"measurement": "Plant response rating, Morningglory", "setting": "[1]; [12]", "result": 0}, {"measurement": "Plant response rating, Morningglory", "setting": "[1]; 16 g ai/ha, scale 0 to 100", "result": 0}, {"measurement": "Barnyardgrass plant response rating", "setting": "[2]; [10]", "result": 85}, {"measurement": "Plant response rating, Barnyardgrass", "setting": "[2]; 62 g ai/ha, scale 0 to 100", "result": 90}, {"measurement": "Plant response rating, Barnyardgrass", "setting": "[2]; [12]", "result": 90}, {"measurement": "Plant response rating, Barnyardgrass", "setting": "[2]; 16 g ai/ha, scale 0 to 100", "result": 45}, {"measurement": "Plant response rating, Corn", "setting": "[3]; [13]", "result": 0}, {"measurement": "Plant response rating, Corn", "setting": "[3]; [14]", "result": 0}, {"measurement": "Corn plant response rating (0 to 100 scale, 0 is no effect, 100 is complete control)", "setting": "[3]; Postemergence, 500 g ai/ha", "result": 60}, {"measurement": "Plant response rating, Corn", "setting": "[3]; [15]", "result": 0}, {"measurement": "Plant response rating, Foxtail, Giant", "setting": "[4]; [13]", "result": 90}, {"measurement": "Plant response rating, Foxtail, Giant", "setting": "[4]; [14]", "result": 70}, {"measurement": "Foxtail, Giant plant response rating (0 to 100 scale, 0 is no effect, 100 is complete control)", "setting": "[4]; Postemergence, 500 g ai/ha", "result": 90}, {"measurement": "Plant response rating, Foxtail, Giant", "setting": "[4]; [15]", "result": 90}, {"measurement": "Ragweed plant response rating", "setting": "[5]; [10]", "result": 0}, {"measurement": "Ragweed plant response rating", "setting": "[5]; [11]", "result": 0}, {"measurement": "Plant response rating, Ragweed", "setting": "[5]; [12]", "result": 0}, {"measurement": "Plant response rating, Ragweed", "setting": "[5]; 16 g ai/ha, scale 0 to 100", "result": 0}, {"measurement": "Plant response rating, Barnyardgrass", "setting": "[6]; [13]", "result": 80}, {"measurement": "Plant response rating, Barnyardgrass", "setting": "[6]; [14]", "result": 90}, {"measurement": "Barnyardgrass plant response rating (0 to 100 scale, 0 is no effect, 100 is complete control)", "setting": "[6]; Postemergence, 500 g ai/ha", "result": 90}, {"measurement": "Plant response rating, Barnyardgrass", "setting": "[6]; [15]", "result": 90}, {"measurement": "Crabgrass, Large plant response rating", "setting": "[7]; [10]", "result": 95}, {"measurement": "Crabgrass, Large plant response rating", "setting": "[7]; [11]", "result": 95}, {"measurement": "Plant response rating, Crabgrass, Large", "setting": "[7]; [12]", "result": 98}, {"measurement": "Plant response rating, Crabgrass, Large", "setting": "[7]; 16 g ai/ha, scale 0 to 100", "result": 90}, {"measurement": "Soybean plant response rating", "setting": "[8]; [10]", "result": 5}, {"measurement": "Soybean plant response rating", "setting": "[8]; [11]", "result": 10}, {"measurement": "Plant response rating, Soybean", "setting": "[8]; [12]", "result": 0}, {"measurement": "Plant response rating, Soybean", "setting": "[8]; 16 g ai/ha, scale 0 to 100", "result": 0}, {"measurement": "Blackgrass plant response rating", "setting": "[9]; [10]", "result": 10}, {"measurement": "Plant response rating, Blackgrass", "setting": "[9]; 62 g ai/ha, scale 0 to 100", "result": 50}, {"measurement": "Plant response rating, Blackgrass", "setting": "[9]; [12]", "result": 55}, {"measurement": "Plant response rating, Blackgrass", "setting": "[9]; 16 g ai/ha, scale 0 to 100", "result": 0}]}]}
